Laboratory results published in patent US20050186135A1, “Compositions, methods, apparatuses, and systems for singlet oxygen delivery” (priority 2001, published 2005).

Experiments:
atherosclerosis = settings: in vivo; cited from earlier work
[1] = Ameta et al. 1990; Parker and Stanbro 1984; cited from earlier work
[2] = in vivo; cited from earlier work
mitosis = settings: Lamprecht et al. 1990; cited from earlier work
tumor growth = settings: mice, Altermatt et al. 1990; cited from earlier work
influenzal pneumonia = settings: intravenous hydrogen peroxide solution, Oliver 1920; cited from earlier work
a single cell = settings: Oseroff et al. 1986; cited from earlier work
[3] = stated as believed; cited from earlier work
[4] = tested on: coronary artery blocked with sclerotic plaque; test: Treatment of Sclerotic Plaque II: hypochlorite alone, then peroxide added; design: species or system human; settings: 2 ml of 6% sodium hypochlorite alone
Method: The following tests were performed to corroborate that the singlet oxygen produced by the hydrogen peroxide and the sodium hypochlorite had actually cleared and opened the human coronary artery blocked with the sclerotic plaque.
Like Example 3, a coronary artery blocked with sclerotic plaque, taken from a human cadaver, was prepared as a target site for treatment. The coronary artery was grayish pink in color and suspended in a formaldehyde preservative. It was surrounded with fatty tissue of an irregular shape, which measured 1.1 cm in its widest dimension. It measured approximately 0.6 cm in length and 0.5 cm in diameter. The lumen of the vessel was completed occluded with sclerotic plaque.
The human coronary artery with the plaque was first treated with 2 ml of 6% solution of sodium hypochlorite alone.
Immediately after the treatment with the sodium hypochlorite, 2 ml of 3% solution of hydrogen peroxide was added to the 2 ml of 6% solution of sodium hypochlorite containing the human coronary artery with the plaque.

skin keratosis lesion = test: Treatment of Keratosis I: intralesional injection; assay type: in vivo, human; settings: 0.4 ml of 6% sodium hypochlorite alone into center of ~1.25 cm lesion
Method: A skin keratosis lesion measuring approximately 1.25 cm in diameter was chosen as a target for treatment. The lesion was located on the left temple of a person.
Using a 30-gauge hypodermic needle, 0.4 ml of a 6% solution of sodium hypochlorite was injected into the center of the lesion. […] See FIG. 20 for a photo of the area immediately following the injection.
Immediately after the first injection, using a 30-gauge hypodermic needle, 0.4 ml of a 3% solution of hydrogen peroxide was injected into the center of the lesion. […] See FIG. 21 for a photo of the area immediately following the injection.

[5] = tested on: coronary artery blocked with sclerotic plaque; test: Treatment of Sclerotic Plaque I: cadaver artery section in test tube; design: species or system human; settings: 2 ml of 6% sodium hypochlorite, shaken one minute
Source text: A coronary artery blocked with sclerotic plaque, taken from a human cadaver, was chosen as a target site for treatment. The coronary artery was grayish pink in color and suspended in a formaldehyde preservative. It was surrounded with fatty tissue of an irregular shape, which measured approximately 1 cm in its widest dimension. It measured 0.6 cm in length and 0.5 cm diameter. The lumen of the vessel was completed occluded with sclerotic plaque.
The cross section of coronary artery was placed in a test tube containing 2 ml of 6% of sodium hypochlorite and was shaken for one minute. […] This preparation was then again shaken.

[6] = gives peroxyl and/or alkoxyl radicals; Noguchi et al. 2002; cited from earlier work

## CC(=O)[O-].CC(=O)[O-].CCc1c(CC)c2cc3nc(cnc4cc(OCCOCCOCCOC)c(OCCOCCOCCOC)cc4ncc4nc(cc1[n-]2)C(CCCO)=C4C)C(C)=C3CCCO.O.[Lu+3] [Antrin, motexafin lutetium]
atherosclerosis
  feasibility and tolerability of photoangioplasty: feasible and well tolerated

## [2H]O[2H] [D2O, deuterium oxide]
[1]
  effect on lifetime of singlet oxygen: can increase the lifetime of singlet oxygen
[2]
  safety in infants: safe
  toxicity in mammals: low toxicity
mitosis
  effect on mitosis: anti-mitotic effect optimized between anaphase and metaphase
Tumor growth
  effect on rate of tumor growth: can depress the rate of tumor growth in mice

## OO [hydrogen peroxide]
Influenzal pneumonia
  treatment success: high rate of success

## O=O [singlet oxygen]
A single cell
  molecules of singlet oxygen necessary to kill a single cell: 10^10 molecules
[3]
  lifetime of singlet oxygen: about 50 nanoseconds

## OCl [sodium hypochlorite]
[4]
  change of plaque with hypochlorite alone: no significant changes occurred to the plaque
Skin keratosis lesion
  bleeding at injection site: minor bleeding at the lower border of the injection site
Skin keratosis lesion; 30-gauge needle
  sensation on injection: mild burning sensation
[5]
  solubilization by hypochlorite alone: minimal solubilization of the surrounding fatty tissue of the vessel

## CC(C)(C)OO [tert-butyl hydroperoxide]
[6]
  formation of singlet oxygen on reaction with hypochlorite: little formation of singlet oxygen
